This is an account of results in patent publication US6531573B1, “Antifungal and antibacterial peptides” (Trustees of Boston University, priority 1997, dated 2003).

For one experiment, the system named is P. gingivalis 381. The following applies: cited from earlier work.
The next experiment has as its target T1, Clostripain (Hathewaya histolytica, UniProt P09870).
T1 construct: purchased Sigma Chemical Corp., St. Louis, Mo
Briefly: Clostripain inhibition. Type of experiment: biochemical. The note with it: endopeptidase of Clostridium histolyticum. Here is the method:
Clostripain from Clostridium histolyticum (Sigma Chemical Corp., St. Louis, Mo.) is dissolved in deionized water to a concentration of 1 mg/ml (300 units/mg) and activated with the addition of 10 mmol/L DTT. To measure its hydrolytic activity, clostripain ( 6 units) is added to […] Hepes buffer, pH 7.5, containing 80 μmol/L BAPNA (benzoyl-arginine-p-nitroanilide), together with 5.6 μmol/L of histatin peptide inhibitor. As controls, assays are performed in the absence of any histatin peptide inhibitor. The activity is monitored continuously at 405 nm using a Molecular Devices Vmax microtitre plate reader. The activities are determined from the maximum rates of substrate hydrolysis. Assays are done in duplicate, and the means normalized to the controls.

T1 sequence (P09870 191-526): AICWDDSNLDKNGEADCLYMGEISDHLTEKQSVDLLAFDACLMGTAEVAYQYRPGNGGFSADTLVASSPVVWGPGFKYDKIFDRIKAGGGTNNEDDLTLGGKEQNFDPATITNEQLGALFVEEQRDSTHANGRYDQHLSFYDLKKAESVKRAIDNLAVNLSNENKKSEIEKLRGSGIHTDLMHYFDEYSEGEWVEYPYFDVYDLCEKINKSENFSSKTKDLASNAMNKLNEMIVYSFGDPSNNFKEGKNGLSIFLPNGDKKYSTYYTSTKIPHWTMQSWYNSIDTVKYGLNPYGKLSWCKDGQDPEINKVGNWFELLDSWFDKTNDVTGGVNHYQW
T1 sequence (P09870 51-181): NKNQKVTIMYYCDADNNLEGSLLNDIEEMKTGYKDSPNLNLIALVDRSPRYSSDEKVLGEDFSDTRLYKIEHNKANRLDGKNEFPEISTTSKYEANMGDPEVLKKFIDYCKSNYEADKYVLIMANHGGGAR

For the substance histatin 5, in the experiment with P. gingivalis 381, the “concentration giving complete hemagglutination inhibition” value is 5 nmol/mL and the “inhibition of hemagglutination (in words)” value was “inhibit hemagglutination”. Besides, the “inhibition of clostripain (in words)” value on Clostripain is reported as “can be inhibited”.
